{"source": "paper PMC4331664", "about": "“Allosteric regulation of the partitioning of glucose-1-phosphate between glycogen and trehalose biosynthesis in Mycobacterium tuberculosis” (Biochimica et Biophysica Acta. General Subjects, 2015)", "key": {"[1]": {"molecular_target": "T1, ADP-Glc PPase (ADP-glucose pyrophosphorylase) (Mycobacterium tuberculosis, UniProt P9WN43)", "T1 construct": "gene glgC", "T1 sequence (P9WN43 whole entry)": "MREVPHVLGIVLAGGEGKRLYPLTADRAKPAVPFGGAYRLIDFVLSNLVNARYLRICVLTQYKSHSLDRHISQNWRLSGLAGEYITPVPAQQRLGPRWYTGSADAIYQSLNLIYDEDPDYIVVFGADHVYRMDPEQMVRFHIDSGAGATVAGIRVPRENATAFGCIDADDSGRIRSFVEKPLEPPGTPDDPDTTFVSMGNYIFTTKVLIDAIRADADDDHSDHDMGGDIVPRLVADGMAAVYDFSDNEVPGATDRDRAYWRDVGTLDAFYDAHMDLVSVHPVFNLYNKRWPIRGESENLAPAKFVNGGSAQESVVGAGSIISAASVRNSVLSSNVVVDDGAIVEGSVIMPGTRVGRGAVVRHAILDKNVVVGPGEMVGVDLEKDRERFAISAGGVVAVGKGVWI", "settings": "read-out: A0.5"}, "[2]": {"molecular_target": "T1, ADP-Glc PPase (ADP-glucose pyrophosphorylase)"}, "[3]": {"molecular_target": "T2, Tre-6P Sase (trehalose-6-phosphate synthase) (Mycobacterium tuberculosis, UniProt P9WN11)", "T2 construct": "gene otsA", "T2 sequence (P9WN11 whole entry)": "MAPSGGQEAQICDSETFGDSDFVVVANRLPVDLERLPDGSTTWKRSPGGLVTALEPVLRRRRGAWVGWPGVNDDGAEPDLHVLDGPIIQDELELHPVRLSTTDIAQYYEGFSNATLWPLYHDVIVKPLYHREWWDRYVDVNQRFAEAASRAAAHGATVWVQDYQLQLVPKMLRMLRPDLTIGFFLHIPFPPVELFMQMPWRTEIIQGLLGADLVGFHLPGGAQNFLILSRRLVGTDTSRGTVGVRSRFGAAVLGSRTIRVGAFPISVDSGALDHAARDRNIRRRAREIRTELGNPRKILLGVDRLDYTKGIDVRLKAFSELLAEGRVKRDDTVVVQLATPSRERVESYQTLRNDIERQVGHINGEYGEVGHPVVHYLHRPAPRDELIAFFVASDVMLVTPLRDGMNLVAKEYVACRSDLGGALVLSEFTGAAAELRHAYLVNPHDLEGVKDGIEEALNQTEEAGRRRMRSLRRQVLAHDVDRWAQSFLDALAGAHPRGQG", "settings": "read-out: A0.5"}, "[4]": {"molecular_target": "T1, ADP-Glc PPase (ADP-glucose pyrophosphorylase)", "assay": "biochemical"}, "[5]": {"system": "Nc1ncnc2c1ncn2[C@@H]1O[C@H](COP(=O)(O)OP(=O)(O)O[C@H]2O[C@H](CO)[C@@H](O)[C@H](O)[C@H]2O)[C@@H](O)[C@H]1O", "assay": "purified protein", "settings": "pH 8.0"}}, "note": "pEC50: −log10 of the molar value. Read-outs that look alike come from different tables or passages of the source.", "data": [{"compound": "O=P(O)(O)OC[C@H]1OC(O)[C@H](O)[C@@H](O)[C@@H]1O", "note": "(stereo partly drawn) [Glc-6P]", "values": [{"measurement": "pEC50", "setting": "[1]", "value": 3.06}]}, {"compound": "O=P(O)(O)OC[C@H]1OC(O)(CO)[C@@H](O)[C@@H]1O", "note": "(stereo partly drawn) [Fru-6P]", "values": [{"measurement": "fold activation at 5 mM", "setting": "[2]", "value": 1.3, "unit": "fold"}, {"measurement": "pEC50", "setting": "[3]", "value": 3.48}]}, {"compound": "C=C(OP(=O)(O)O)C(=O)O", "note": "[PEP]", "values": [{"measurement": "pEC50", "setting": "[4]", "value": 4.05}]}, {"compound": "GSase (glycogen synthase) (Mycobacterium tuberculosis H37Rv)", "values": [{"measurement": "K0.5", "setting": "[5]", "value": "3.95 ± 0.12", "unit": "mM"}, {"measurement": "Vmax", "setting": "[5]", "value": 0.21, "unit": "µmol/min/mg"}]}]}
